Reference: ChEMBL document CHEMBL5303573, “Mapping human microbiome drug metabolism by gut bacteria and their genes” (Nature, 2019)

Tests used:
[1] = The drug is tested on Bacteroides cellulosilyticus strain: DSM14838 for biotransformation. The drug concentrations were measured before and after a 12-h incubation by liquid-chromatography-coupled mass spectrometry (LC–MS); details: 2 µM
[2] = The drug is tested on Bacteroides fragilis strain: HMW615 for biotransformation. The drug concentrations were measured before and after a 12-h incubation by liquid-chromatography-coupled mass spectrometry (LC–MS); details: 2 µM
[3] = The drug is tested on Anaerococcus hydrogenalis strain: DSM7454 for biotransformation. The drug concentrations were measured before and after a 12-h incubation by liquid-chromatography-coupled mass spectrometry (LC–MS); details: 2 µM
[4] = The drug is tested on Blautia luti strain: DSM14534 for biotransformation. The drug concentrations were measured before and after a 12-h incubation by liquid-chromatography-coupled mass spectrometry (LC–MS); type: ADME; set-up: dose 2 uM, timepoint 0 vs 12 hours; details: 2 µM
[5] = The drug is tested on Clostridium sp. strain: fecal isolate for biotransformation. The drug concentrations were measured before and after a 12-h incubation by liquid-chromatography-coupled mass spectrometry (LC–MS); details: 2 µM
[6] = The drug is tested on Clostridium scindens strain: ATCC35704 for biotransformation. The drug concentrations were measured before and after a 12-h incubation by liquid-chromatography-coupled mass spectrometry (LC–MS); details: 2 µM
[7] = The drug is tested on Subdoligranulum variabile strain: DSM15176 for biotransformation. The drug concentrations were measured before and after a 12-h incubation by liquid-chromatography-coupled mass spectrometry (LC–MS); details: 2 µM
[8] = The drug is tested on Providencia rettgeri strain: DSM1131 for biotransformation. The drug concentrations were measured before and after a 12-h incubation by liquid-chromatography-coupled mass spectrometry (LC–MS); type: ADME; set-up: dose 2 uM, timepoint 0 vs 12 hours; details: 2 µM
[9] = bacteroides fragilis, 12 h, 2 µM
Description: The drug is tested on Bacteroides fragilis strain: DS-208 for biotransformation. The drug concentrations were measured before and after a 12-h incubation by liquid-chromatography-coupled mass spectrometry (LC–MS)

[10] = bacteroides stercoris, 12 h, 2 µM
Description: The drug is tested on Bacteroides stercoris strain: ATCC43183 for biotransformation. The drug concentrations were measured before and after a 12-h incubation by liquid-chromatography-coupled mass spectrometry (LC–MS)

[11] = bacteroides thetaiotaomicron, 12 h, 2 µM
Description: The drug is tested on Bacteroides thetaiotaomicron strain: VPI-5482 for biotransformation. The drug concentrations were measured before and after a 12-h incubation by liquid-chromatography-coupled mass spectrometry (LC–MS)

[12] = parabacteroides johnsonii, 12 h, 2 µM
Description: The drug is tested on Parabacteroides johnsonii strain: DSM18315 for biotransformation. The drug concentrations were measured before and after a 12-h incubation by liquid-chromatography-coupled mass spectrometry (LC–MS)

[13] = anaerostipes sp., 12 h, 2 µM
Description: The drug is tested on Anaerostipes sp. strain: fecal isolate for biotransformation. The drug concentrations were measured before and after a 12-h incubation by liquid-chromatography-coupled mass spectrometry (LC–MS)

[14] = roseburia intestinalis, 12 h, 2 µM
Description: The drug is tested on Roseburia intestinalis strain: L1-82 for biotransformation. The drug concentrations were measured before and after a 12-h incubation by liquid-chromatography-coupled mass spectrometry (LC–MS)

[15] = akkermansia muciniphila, 12 h, 2 µM
Description: The drug is tested on Akkermansia muciniphila strain: ATCC BAA-835 for biotransformation. The drug concentrations were measured before and after a 12-h incubation by liquid-chromatography-coupled mass spectrometry (LC–MS)

[16] = The drug is tested on Bacteroides fragilis strain: HMW610 for biotransformation. The drug concentrations were measured before and after a 12-h incubation by liquid-chromatography-coupled mass spectrometry (LC–MS); details: 2 µM
[17] = The drug is tested on Bacteroides vulgatus strain: ATCC8482 for biotransformation. The drug concentrations were measured before and after a 12-h incubation by liquid-chromatography-coupled mass spectrometry (LC–MS); details: phocaeicola vulgatus, 2 µM
[18] = The drug is tested on Ruminococcus lactaris strain: ATCC29176 for biotransformation. The drug concentrations were measured before and after a 12-h incubation by liquid-chromatography-coupled mass spectrometry (LC–MS); details: 2 µM
[19] = parabacteroides distasonis, 12 h, 2 µM
Description: The drug is tested on Parabacteroides distasonis strain: ATCC8503 for biotransformation. The drug concentrations were measured before and after a 12-h incubation by liquid-chromatography-coupled mass spectrometry (LC–MS)

[20] = bacteroides eggerthii, 12 h, 2 µM
Description: The drug is tested on Bacteroides eggerthii strain: DSM20697 for biotransformation. The drug concentrations were measured before and after a 12-h incubation by liquid-chromatography-coupled mass spectrometry (LC–MS)

CC(=O)OCC(=O)[C@@]1(O)[C@@H](C)C[C@H]2[C@@H]3CCC4=CC(=O)C=C[C@]4(C)[C@@]3(F)[C@@H](O)C[C@@]21C [BETAMETHASONE ACETATE]
Bacterial Biotransformation [1]: Compound NOT metabolized
Bacterial Biotransformation [2]: Compound metabolized
Bacterial Biotransformation [3]: Compound NOT metabolized
Bacterial Biotransformation [4]: Compound NOT metabolized
Bacterial Biotransformation [5]: Compound metabolized
Bacterial Biotransformation [6]: Compound NOT metabolized
Bacterial Biotransformation [7]: Compound NOT metabolized
Bacterial Biotransformation [8]: Compound NOT metabolized
Bacterial Biotransformation [9]: Compound metabolized
Bacterial Biotransformation [10]: Compound metabolized
Bacterial Biotransformation [11]: Compound metabolized
Bacterial Biotransformation [12]: Compound metabolized
Bacterial Biotransformation [13]: Compound NOT metabolized
Bacterial Biotransformation [14]: Compound NOT metabolized
Bacterial Biotransformation [15]: Compound NOT metabolized

CCCCC1=NC2(CCCC2)C(=O)N1Cc1ccc(-c2ccccc2-c2nnn[nH]2)cc1 [IRBESARTAN]
Bacterial Biotransformation [1]: Compound metabolized
Bacterial Biotransformation [16]: Compound metabolized
Bacterial Biotransformation [2]: Compound metabolized
Bacterial Biotransformation [17]: Compound metabolized
Bacterial Biotransformation [3]: Compound metabolized
Bacterial Biotransformation [4]: Compound NOT metabolized
Bacterial Biotransformation [5]: Compound metabolized
Bacterial Biotransformation [6]: Compound metabolized
Bacterial Biotransformation [18]: Compound metabolized
Bacterial Biotransformation [7]: Compound metabolized
Bacterial Biotransformation [8]: Compound metabolized
Bacterial Biotransformation [9]: Compound metabolized
Bacterial Biotransformation [10]: Compound metabolized
Bacterial Biotransformation [11]: Compound metabolized
Bacterial Biotransformation [19]: Compound metabolized
Bacterial Biotransformation [12]: Compound metabolized
Bacterial Biotransformation [13]: Compound metabolized
Bacterial Biotransformation [15]: Compound NOT metabolized

C[C@]12C=CC(=O)C=C1CC[C@@H]1[C@@H]2C(=O)C[C@@]2(C)[C@H]1CC[C@]2(O)C(=O)CO [PREDNISONE]
Bacterial Biotransformation [1]: Compound NOT metabolized
Bacterial Biotransformation [16]: Compound NOT metabolized
Bacterial Biotransformation [2]: Compound NOT metabolized
Bacterial Biotransformation [17]: Compound NOT metabolized
Bacterial Biotransformation [3]: Compound NOT metabolized
Bacterial Biotransformation [4]: Compound NOT metabolized
Bacterial Biotransformation [5]: Compound NOT metabolized
Bacterial Biotransformation [6]: Compound NOT metabolized
Bacterial Biotransformation [18]: Compound NOT metabolized
Bacterial Biotransformation [7]: Compound NOT metabolized
Bacterial Biotransformation [8]: Compound NOT metabolized
Bacterial Biotransformation [20]: Compound NOT metabolized
Bacterial Biotransformation [9]: Compound NOT metabolized
Bacterial Biotransformation [11]: Compound NOT metabolized
Bacterial Biotransformation [19]: Compound NOT metabolized
Bacterial Biotransformation [12]: Compound NOT metabolized
Bacterial Biotransformation [13]: Compound NOT metabolized
Bacterial Biotransformation [14]: Compound NOT metabolized
Bacterial Biotransformation [15]: Compound NOT metabolized

COc1ccccc1OCC(O)CN1CCN(CC(=O)Nc2c(C)cccc2C)CC1 (configuration not stated) [RANOLAZINE]
Bacterial Biotransformation [1]: Compound NOT metabolized
Bacterial Biotransformation [16]: Compound NOT metabolized
Bacterial Biotransformation [2]: Compound NOT metabolized
Bacterial Biotransformation [17]: Compound NOT metabolized
Bacterial Biotransformation [3]: Compound NOT metabolized
Bacterial Biotransformation [4]: Compound NOT metabolized
Bacterial Biotransformation [5]: Compound NOT metabolized
Bacterial Biotransformation [6]: Compound NOT metabolized
Bacterial Biotransformation [18]: Compound NOT metabolized
Bacterial Biotransformation [7]: Compound NOT metabolized
Bacterial Biotransformation [8]: Compound NOT metabolized
Bacterial Biotransformation [20]: Compound NOT metabolized
Bacterial Biotransformation [9]: Compound NOT metabolized
Bacterial Biotransformation [10]: Compound NOT metabolized
Bacterial Biotransformation [11]: Compound NOT metabolized
Bacterial Biotransformation [19]: Compound NOT metabolized
Bacterial Biotransformation [12]: Compound NOT metabolized
Bacterial Biotransformation [13]: Compound NOT metabolized
Bacterial Biotransformation [14]: Compound NOT metabolized

CCN(C)C(=O)Oc1cccc([C@H](C)N(C)C)c1.O=C(O)C(O)C(O)C(=O)O [RIVASTIGMINE TARTRATE]
Bacterial Biotransformation [1]: Compound NOT metabolized
Bacterial Biotransformation [16]: Compound NOT metabolized
Bacterial Biotransformation [2]: Compound NOT metabolized
Bacterial Biotransformation [3]: Compound NOT metabolized
Bacterial Biotransformation [4]: Compound NOT metabolized
Bacterial Biotransformation [5]: Compound NOT metabolized
Bacterial Biotransformation [6]: Compound NOT metabolized
Bacterial Biotransformation [18]: Compound NOT metabolized
Bacterial Biotransformation [7]: Compound NOT metabolized
Bacterial Biotransformation [8]: Compound NOT metabolized
Bacterial Biotransformation [20]: Compound NOT metabolized
Bacterial Biotransformation [9]: Compound NOT metabolized
Bacterial Biotransformation [10]: Compound NOT metabolized
Bacterial Biotransformation [11]: Compound NOT metabolized
Bacterial Biotransformation [19]: Compound NOT metabolized
Bacterial Biotransformation [12]: Compound NOT metabolized
Bacterial Biotransformation [13]: Compound NOT metabolized
Bacterial Biotransformation [14]: Compound NOT metabolized
Bacterial Biotransformation [15]: Compound NOT metabolized

C=CC[C@@H]1/C=C(\C)C[C@H](C)C[C@H](OC)[C@H]2O[C@@](O)(C(=O)C(=O)N3CCCC[C@H]3C(=O)O[C@H](/C(C)=C/[C@@H]3CC[C@@H](O)[C@H](OC)C3)[C@H](C)[C@@H](O)CC1=O)[C@H](C)C[C@@H]2OC.O [TACROLIMUS]
Bacterial Biotransformation [1]: Compound metabolized
Bacterial Biotransformation [2]: Compound NOT metabolized
Bacterial Biotransformation [17]: Compound NOT metabolized
Bacterial Biotransformation [3]: Compound metabolized
Bacterial Biotransformation [4]: Compound metabolized
Bacterial Biotransformation [5]: Compound metabolized
Bacterial Biotransformation [6]: Compound metabolized
Bacterial Biotransformation [18]: Compound metabolized
Bacterial Biotransformation [7]: Compound metabolized
Bacterial Biotransformation [8]: Compound metabolized
Bacterial Biotransformation [20]: Compound metabolized
Bacterial Biotransformation [9]: Compound NOT metabolized
Bacterial Biotransformation [10]: Compound metabolized
Bacterial Biotransformation [11]: Compound NOT metabolized
Bacterial Biotransformation [19]: Compound metabolized
Bacterial Biotransformation [12]: Compound metabolized
Bacterial Biotransformation [13]: Compound metabolized
Bacterial Biotransformation [14]: Compound metabolized
Bacterial Biotransformation [15]: Compound metabolized

COc1cc2nc(N3CCN(C(=O)C4CCCO4)CC3)nc(N)c2cc1OC (configuration not stated) [TERAZOSIN]
Bacterial Biotransformation [1]: Compound NOT metabolized
Bacterial Biotransformation [16]: Compound NOT metabolized
Bacterial Biotransformation [2]: Compound NOT metabolized
Bacterial Biotransformation [17]: Compound NOT metabolized
Bacterial Biotransformation [3]: Compound NOT metabolized
Bacterial Biotransformation [4]: Compound NOT metabolized
Bacterial Biotransformation [5]: Compound NOT metabolized
Bacterial Biotransformation [7]: Compound NOT metabolized
Bacterial Biotransformation [8]: Compound NOT metabolized
Bacterial Biotransformation [20]: Compound NOT metabolized
Bacterial Biotransformation [9]: Compound NOT metabolized
Bacterial Biotransformation [10]: Compound NOT metabolized
Bacterial Biotransformation [11]: Compound NOT metabolized
Bacterial Biotransformation [19]: Compound NOT metabolized
Bacterial Biotransformation [12]: Compound NOT metabolized
Bacterial Biotransformation [13]: Compound NOT metabolized
Bacterial Biotransformation [14]: Compound NOT metabolized
Bacterial Biotransformation [15]: Compound NOT metabolized

Cc1ccc(-c2nc3ccc(C)cn3c2CC(=O)N(C)C)cc1 [ZOLPIDEM]
Bacterial Biotransformation [1]: Compound NOT metabolized
Bacterial Biotransformation [16]: Compound NOT metabolized
Bacterial Biotransformation [2]: Compound NOT metabolized
Bacterial Biotransformation [17]: Compound NOT metabolized
Bacterial Biotransformation [3]: Compound NOT metabolized
Bacterial Biotransformation [4]: Compound NOT metabolized
Bacterial Biotransformation [5]: Compound NOT metabolized
Bacterial Biotransformation [18]: Compound NOT metabolized
Bacterial Biotransformation [7]: Compound NOT metabolized
Bacterial Biotransformation [8]: Compound NOT metabolized
Bacterial Biotransformation [9]: Compound NOT metabolized
Bacterial Biotransformation [10]: Compound NOT metabolized
Bacterial Biotransformation [13]: Compound NOT metabolized
Bacterial Biotransformation [14]: Compound NOT metabolized
Bacterial Biotransformation [15]: Compound NOT metabolized
